According to ChEMBL document CHEMBL4814073, “Ring-opening of five-membered heterocycles conjugated 4-isopropylresorcinol scaffold-based benzamides as HSP90 inhibitors suppressing tumor growth in vitro and in vivo” (Eur J Med Chem, 2021):
Values belong to the molecule of their own block, whether it stands above or below them.

How the values were obtained:
A549 = test: Antiproliferative activity against human A549 cells assessed as growth inhibition incubated for 48 hrs by Sulforhodamine B assay; format: functional
HCT-116 = test: Antiproliferative activity against human HCT116 cells assessed as growth inhibition incubated for 48 hrs by Sulforhodamine B assay; format: functional
Hep 3B2 = test: Antiproliferative activity against human Hep3B cells assessed as growth inhibition incubated for 48 hrs by Sulforhodamine B assay; format: functional
MDA-MB-231 = test: Antiproliferative activity against human MDA-MB-231 cells assessed as growth inhibition incubated for 48 hrs by Sulforhodamine B assay; format: functional
[1] = Antiproliferative activity against human HUVEC cells assessed as growth inhibition incubated for 48 hrs by Sulforhodamine B assay; format: cell-based
Heat shock protein HSP90 = Heat shock protein HSP90 (Homo sapiens, UniProt P07900+P08238); test: Inhibition of HSP90 (unknown origin) assessed as competition of fluorescently labelled geldanamycin binding after 2 hrs by microplate reader analysis; format: protein assay
in vitro = details: human, HUVEC cells versus A549 cells
Description: Therapeutic index, ratio of IC50 for HUVEC cells to IC50 for human A549 cells

661W = test: Cytotoxicity against mouse 661W cells by MTT based vision related toxicity assay; format: cell-based
[2] = Apparent permeability across basolateral to apical in human Caco2 cells by LC-MS/MS analysis; format: ADME, cell-based; details: Caco-2

Compound: CC(C)c1cc(C(=O)N(c2ccncc2)C(C)C)c(O)cc1O
- GI50 (A549): 190 nM

Compound: CCN(C(=O)c1cc(C(C)C)c(O)cc1O)c1ccncc1
- GI50 (A549): 120 nM
- GI50 (HCT-116): 640 nM
- GI50 (Hep 3B2): 100 nM
- GI50 (MDA-MB-231): 80 nM
- GI50 at 48 h [1]: < 100 nM
- IC50 (Heat shock protein HSP90): 109 nM
- selectivity ratio (in vitro): 0.8

Compound: COc1c(C)cnc(Cn2cnc3c(Cl)nc(N)nc32)c1C [BIIB021]
- GI50 (Hep 3B2): 240 nM
- GI50 (MDA-MB-231): 240 nM
- GI50 at 48 h [1]: 1420 nM
- Activity (661W): > 10 µM

Compound: CCN(C(=O)c1cc(C(C)C)c(O)cc1O)c1ccc2c(ccn2C)c1
- GI50 (A549): 80 nM

Compound: CC(C)c1cc(C(=O)N(C)c2ccc3c(ccn3C)c2)c(O)cc1O
- GI50 (A549): 280 nM
- GI50 (HCT-116): 700 nM
- GI50 (Hep 3B2): 570 nM
- GI50 (MDA-MB-231): 100 nM
- GI50 at 48 h [1]: 820 nM
- IC50 (Heat shock protein HSP90): 106 nM
- selectivity ratio (in vitro): 2.9

Compound: CCCN(C(=O)c1cc(C(C)C)c(O)cc1O)c1ccncc1
- GI50 (A549): 370 nM

Compound: CCCN(C(=O)c1cc(C(C)C)c(O)cc1O)c1ccc2[nH]ccc2c1
- GI50 (A549): 140 nM

Compound: COC1=C2C[C@@H](C)C[C@H](OC)[C@H](O)[C@@H](C)/C=C(\C)[C@H](OC(N)=O)[C@@H](OC)/C=C\C=C(/C)C(=O)NC(=CC1=O)C2=O [GELDANAMYCIN]
- Activity (661W): 1.65 µM

Compound: CC(C)c1cc(-c2n[nH]c(=O)n2-c2ccc3c(ccn3C)c2)c(O)cc1O [GANETESPIB]
- Activity (661W): > 10 µM

Compound: CC(C)c1cc(C(=O)Nc2ccncc2)c(O)cc1O
- GI50 (A549): > 10000 nM

Compound: CCN(C(=O)c1cc(C(C)C)c(O)cc1O)c1ccc2[nH]ccc2c1
- GI50 (A549): 110 nM
- GI50 (HCT-116): 370 nM
- GI50 (Hep 3B2): 110 nM
- GI50 (MDA-MB-231): 80 nM
- GI50 at 48 h [1]: < 100 nM
- IC50 (Heat shock protein HSP90): 117 nM
- selectivity ratio (in vitro): 0.9

Compound: CCCN(C(=O)c1cc(C(C)C)c(O)cc1O)c1ccc2c(ccn2C)c1
- GI50 (A549): 300 nM

Compound: CCNC(=O)c1noc(-c2cc(C(C)C)c(O)cc2O)c1-c1ccc(CN2CCOCC2)cc1 [LUMINESPIB]
- Activity (661W): 0.04 µM

Compound: CC(C)c1cc(C(=O)Nc2ccc3[nH]ccc3c2)c(O)cc1O
- GI50 (A549): > 10000 nM

Compound: CC(C)c1cc(C(=O)N(c2ccc3[nH]ccc3c2)C(C)C)c(O)cc1O
- GI50 (A549): 210 nM

Compound: CC(C)c1cc(C(=O)Nc2ccc3c(ccn3C)c2)c(O)cc1O
- GI50 (A549): > 10000 nM

Compound: CC(C)c1cc(C(=O)N(c2cccnc2)C(C)C)c(O)cc1O
- GI50 (A549): 260 nM

Compound: CC(C)c1cc(C(=O)Nc2cccnc2)c(O)cc1O
- GI50 (A549): > 10000 nM

Compound: CCCN(C(=O)c1cc(C(C)C)c(O)cc1O)c1cccnc1
- GI50 (A549): 390 nM

Compound: CC(C)c1cc(C(=O)N(C)c2ccc3[nH]ccc3c2)c(O)cc1O
- GI50 (A549): 170 nM
- GI50 (HCT-116): 1000 nM
- GI50 (Hep 3B2): 180 nM
- GI50 (MDA-MB-231): 70 nM
- GI50 at 48 h [1]: 570 nM
- IC50 (Heat shock protein HSP90): 115 nM
- selectivity ratio (in vitro): 3.4

Compound: C=CCNC1=C2C[C@@H](C)C[C@H](OC)[C@H](O)[C@@H](C)/C=C(\C)[C@H](OC(N)=O)[C@@H](OC)/C=C\C=C(/C)C(=O)NC(=CC1=O)C2=O [TANESPIMYCIN]
- GI50 (A549): 80 nM
- GI50 (HCT-116): 340 nM
- GI50 (Hep 3B2): 80 nM
- GI50 (MDA-MB-231): 270 nM
- GI50 at 48 h [1]: < 100 nM
- Activity (661W): > 10 µM

- permeability [2]: 8.04 10^-6 cm/s
Compound: COC(=O)c1ccccc1-c1c2ccc(=N)cc-2oc2cc(N)ccc12.Cl [RHODAMINE123]
